Here are results for 42 compounds from US10688093B2, “Methods, compositions, and uses of novel Fyn kinase inhibitors” (priority 2015, dated 2020).

full-length recombinant human FYN A, sequence (P06241 whole entry): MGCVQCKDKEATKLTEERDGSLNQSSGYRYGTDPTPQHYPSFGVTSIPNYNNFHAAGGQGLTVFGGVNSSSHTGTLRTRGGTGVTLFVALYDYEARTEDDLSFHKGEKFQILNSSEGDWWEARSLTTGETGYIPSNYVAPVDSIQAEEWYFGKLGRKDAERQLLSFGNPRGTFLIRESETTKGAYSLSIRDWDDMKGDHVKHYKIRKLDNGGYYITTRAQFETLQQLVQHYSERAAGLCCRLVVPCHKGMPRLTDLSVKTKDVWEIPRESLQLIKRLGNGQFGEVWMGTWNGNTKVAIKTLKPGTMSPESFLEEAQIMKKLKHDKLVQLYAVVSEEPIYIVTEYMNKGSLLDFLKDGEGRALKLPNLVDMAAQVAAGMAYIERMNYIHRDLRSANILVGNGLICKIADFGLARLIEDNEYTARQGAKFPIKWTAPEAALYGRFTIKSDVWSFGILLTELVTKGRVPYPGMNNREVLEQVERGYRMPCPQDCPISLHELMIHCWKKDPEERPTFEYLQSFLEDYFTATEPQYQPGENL

The first experiment has as its target full-length recombinant human FYN A (Homo sapiens (Human), UniProt P06241). The experiment can be described thus: ADP-Glo Kinase Assay of FYN kinase inhibition. The format is biochemical. The following applies: primary screen, initial compounds. In a few lines: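 GST-tagged full-length FYN A (baculovirus, Sf9) at 3 pg preincubated 30 min RT with compound (10-point 3-fold series from 10 μM) in Tris pH 7.5/MgCl2 buffer. 12-mer tyrosine peptide plus 12.5 pmol ATP added, 90 min RT; ADP measured by ADP-Glo luminescence, IC50 from dose-response.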
Background: ADP-Glo first removes unused ATP, then detects ADP through luciferase.
For orientation: IC50 means the concentration at which inhibition is half-maximal. `COc1cc(-c2cnc3cnc(-c4ccc(C(=O)NCCN(C)C)cc4)cn23)ccc1O` [388_0314_0327, N-(2-dimethylamino-ethyl)-4-[3-(4-hydroxy-3-methoxy-phenyl)imidazo [1,2-a]pyrazin-6-yl]benzamide]: the IC50 came out at 0.44 µM.
As to `COc1cc(-c2cnc3cnc(-c4ccccc4Cl)cn23)ccc1O` [388_0314_4027, 4-[6-(2-chlorophenyl)imidazo[1,2-a]pyrazin-3-yl]-2-methoxy-phenol], the IC50 came to 2.54 µM.
`COc1cc(-c2cnc3cnc(-c4ccc(N)nc4)cn23)ccc1O` [388_0314_7905, 4-[6-(6-amino-3-pyridyl)imidazo [1,2-a]pyrazin-3-yl]-2-methoxy-phenol]: the IC50 came out at 1.41 µM.
On the same count and under the same terms, as for `COc1cc(-c2cnc3cnc(-c4cnn(C)c4)cn23)ccc1O` [388_0314_8400, 2-methoxy-4-[6-(1-methylpyrazol-4-yl)imidazo[1,2-a]pyrazin-3-yl]phenol], the figure is 0.746 µM.
Consider `CC(=O)c1cccc(-c2cnc3cnc(-c4ccc(C(=O)NCCN(C)C)cc4)cn23)c1` [388_4145_0327, 4-[3-(3-acetylphenyl)imidazo[1,2-a]pyrazin-6-yl]-N-(2-dimethyl-aminoethyl) benzamide], for which the IC50 was 4.07 µM.
Turning to `Oc1ccc(-c2cn3c(-c4cccs4)cnc3cn2)cc1` [388_4147_0080, 4-[3-(2-thienyl)imidazo [1,2-a]pyrazin-6-yl]phenol], the IC50 amounted to 6.25 µM.
Take `CN(C)CCNC(=O)c1ccc(-c2cn3c(-c4cccs4)cnc3cn2)cc1` [388_4147_0327, N-(2-dimethylamino-ethyl)-4-[3-(2-thienyl)imidazo [1,2-a]pyrazin-6-yl]benzamide]: the IC50 amounted to 8.52 µM.
Consider `c1csc(-c2cn3c(-c4cccs4)cnc3cn2)c1` [388_4147_4147, 3,6-bis(2-thienyl)imidazo [1,2-a]pyrazine], for which the IC50 turned out to be 5.03 µM.
Consider `Nc1ccc(-c2cn3c(-c4cccs4)cnc3cn2)cn1` [388_4147_7905, 5-[3-(2-thienyl)imidazo [1,2-a]pyrazin-6-yl]pyridin-2-amine], for which the IC50 was found to be 8.16 µM.
Take `COc1cc(OC)cc(-c2cnc3cnc(-c4ccc(C(=O)NCCCN(C)C)cc4)cn23)c1` [388_7492_0180, 4-[3-(3,5-dimethoxyphenyl)imidazo[1,2-a]pyrazin-6-yl]-N-[3-(dimethyl-amino)propyl] benzamide]: the IC50 stood at 6.69 µM.
Turning to `CCCN1CCc2nc(Nc3cc(OC)c(OC)c(OC)c3)ncc2C1` [582_9377_5632, 6-propyl-N-(3,4,5-trimethoxy-phenyl)-7,8-dihydro-5H-pyrido[4,3-d]pyrimidin-2-amine], the IC50 was found to be 14.7 µM.
On the same count and under the same terms, as for `CCNC(=O)N1CCc2nc(Nc3cc(OC)c(OC)c(OC)c3)ncc2C1` [582_9377_5725, N-ethyl-2-(3,4,5-trimethoxy-anilino)-7,8-dihydro-5H-pyrido[4,3-d]pyrimidine-6-carboxamide], the figure is 4.25 µM; as for `COc1ccccc1C(=O)N1Cc2cnc(Nc3cccc(N(C)C)c3)nc2C1` [585_9372_5053, [2-[3-(dimethylamino)anilino]-5,7-dihydropyrrolo [3,4-d]pyrimidin-6-yl]-(2-methoxyphenyl) methanone], 10.1 µM.

Staying with this experiment, now noted: secondary screen, re-synthesized and expanded compounds.
As to `c1csc(CNc2ccc3ncc(-c4ccncc4)n3n2)c1` [BF000145941, 3-(4-pyridyl)-N-(2-thienyl-methyl)-[1,2-a]pyridazin-6-amine], the IC50 is 0.105 µM.
With `c1cc(-c2cnc3ccc(NCc4ccc5c(c4)OCO5)nn23)ccn1` [BF000146108, N-(1,3-benzodioxol-5-ylmethyl)-3-(4-pyridyl)-imidazo[1,2-b]pyridazin-6-amine], the IC50 worked out at 0.297 µM.
Turning to `COc1ccc(-c2cnc3ccc(NCc4ccc5c(c4)OCO5)nn23)cc1OC` [BF000146114, N-(1,3-benzodioxol-5-ylmethyl)-3-[3,4-dimethoxy-phenyl)-imidazo[1,2-b]pyridazin-6-amine], the IC50 came to 6.22 µM.
On the same count and under the same terms, as for `COc1cc(-c2cnc3ccc(NCc4ccc5c(c4)OCO5)nn23)ccc1O` [BF000146126, 4-[6-(1,3-benzodioxol-5-ylmethyl-amino)-imidazo[1,2-b]pyridazin-3-yl]-2-methoxy-phenol], the figure is 1.31 µM; as for `Nc1cccc(-c2cnc3ccc(NC4CCOCC4)nn23)c1` [BF000146142, 3-(3-aminophenyl)-N-tetrahydro-pyran-4-yl-imidazo[1,2-b]pyridazin-6-amine], 1.42 µM.
For the compound `COc1ccc(-c2cnc3ccc(NC4CCOCC4)nn23)cc1OC` [BF000146153, 3-(3,4-dimethoxy-phenyl)-N-tetrahydro-pyran-4-yl-imidazo[1,2-b]pyridazin-6-amine], the IC50 was 0.48 µM.
Take `CC(=O)Nc1cccc(-c2cnc3ccc(NC4CCOCC4)nn23)c1` [BF000146155, N-[3-[6-(tetra-hydropyran-4-ylamino)-imidazo[1,2-b]pyridazin-3-yl)phenyl]-acetamide]: the IC50 is 0.397 µM.
In the case of `COc1cccc(-c2cnc3ccc(NC4CCOCC4)nn23)c1` [BF000146183, 3-(3-methoxy-phenyl)-N-tetrahydro-pyran-4-yl-imidazo[1,2-b]pyridazin-6-amine], the IC50 was 0.829 µM.
With `OCCCNc1ccc2ncc(-c3ccc4c(c3)OCO4)n2n1` [BF000146218, 3-[[3-(1,3-benzodioxol-5-yl)-imidazo[1,2-b]pyridazin-6-yl]amino]-propan-1-ol], the IC50 worked out at 0.708 µM.
For `COc1ccc(-c2cnc3ccc(NCCCO)nn23)cc1OC` [BF000146224, 3-[[3-(3,4-dimethoxy-phenyl)-imidazo[1,2-b]pyridazin-6-yl]-amino]-propan-1-ol], the IC50 stood at 0.725 µM.
Turning to `COc1cc(-c2cnc3ccc(NCCCO)nn23)ccc1O` [BF000146250, 4-[6-(3-hydroxy-propylamino)-imdazo[1,2-b]pyridazin-3-yl]-2-methoxy-phenol], the IC50 amounted to 0.206 µM.
In the case of `CC(=O)Nc1cccc(-c2cnc3ccc(N[C@H](CO)C(C)C)nn23)c1` [BF000146300, N-[3-[6-[[(1S)-1-(hydroxy-methyl)-2-methyl-propyl]-amino]-imidazo[1,2-b]pyridazin-3-yl]-phenyl]acetamide], the half-inhibitory concentration (IC50) stood at 0.792 µM.
`COc1cc(-c2cnc3ccc(N[C@H](CO)C(C)C)nn23)ccc1O` [BF000146319, 4-[6-[[(1S)-1-(hydroxy-methyl)-2-methyl-propyl]-amino]-imidazo[1,2-b]pyridazin-3-yl]-2-methoxy-phenol]: the IC50 came to 0.443 µM.
Regarding `c1ccc(CNc2ccc3ncc(-c4ccc5c(c4)OCO5)n3n2)nc1` [BF000146330, 3-(1,3-benzodioxol-5-yl)-N-(2-pyridyl-methyl)-imidazo[1,2-b]pyridazin-6-amine], the IC50 is 0.355 µM.
The same measure, in the same setting: the result for `COc1ccc(-c2cnc3ccc(NCc4cccs4)nn23)cc1OC` [BF000146992, 3-(3,4-dimetboxy-phenyl)-N-(2-thienyl-methyl)-imidazo[1,2-b]pyridazin-6-amine] reads 0.721 µM; that for `CCCNc1ccc2ncc(-c3ccncc3)n2n1` [BF000147056, N-propyl-3-(4-pyridyl)-imidazo[1,2-b]pyridazin-6-amine], 0.217 µM; that for `CCCNc1ccc2ncc(-c3ccc(OC)c(OC)c3)n2n1` [BF000147061, 3-(3,4-dimethoxy-phenyl)-N-propyl-imidazo[1,2-b]pyridazin-6-amine], 0.285 µM.
For `CCCNc1ccc2ncc(-c3cccc(O)c3)n2n1` [BF000147075, 3-[6-(propylamino)-imidazo[1,2-b]pyridazin-3-yl]phenol], the IC50 turned out to be 0.592 µM.
Same read-out and setting: as for `CCCNc1ccc2ncc(-c3ccc(O)c(OC)c3)n2n1` [BF000147080, 2-methoxy-4-[6-(propyl-amino)-imidazo[1,2-b]pyridazin-3-yl]phenol], the figure is 0.0816 µM.
The same measure, in the same setting: as for `CCCNc1ccc2ncc(-c3cccc(C(C)=O)c3)n2n1` [BF000147088, 1-[3-[6-(propyl-amino)-imidazo[1,2-b]pyridazin-3-yl]phenyl]-ethanone], the figure is 0.406 µM.
With `CC(=O)c1cccc(-c2cnc3ccc(NCc4ccc5c(c4)OCO5)nn23)c1` [BF000147140, 1-[3-[6-(1,3-benzodioxol-5-ylmethyl-amino)-imidazo[1,2-b]pyridazin-3-yl]phenyl]-ethanone], the IC50 amounted to 3.19 µM.
Same read-out and setting: as for `COc1cc(-c2cnc3ccc(NC4CCOCC4)nn23)ccc1O` [BF000147168], the figure is 0.113 µM.
Regarding `COc1ccc(-c2cnc3ccc(NCc4ccccn4)nn23)cc1OC` [BF000147233, 3-(3,4-dimethoxy-phenyl)-N-(2-pyridyl-methyl)-imidazo[1,2-b]pyridazin-6-amine], the IC50 was determined as 0.494 µM.
Turning to `COc1cc(-c2cnc3ccc(NC4CCOCC4)nn23)cc(OC)c1OC` [BF000147394, N-tetrahydro-pyran-4-yl-3-(3,4,5-trimethoxy-phenyl)-imidazo[1,2-b]pyridazin-6-amine], the IC50 amounted to 0.503 µM.
For the compound `COc1cc(-c2cc(-c3ccccc3)cnc2N)cc(OC)c1OC` [BF000312489, 5-phenyl-3-(3,4,5-trimethoxy-phenyl)-pyridin-2-amine], the IC50 turned out to be 1.31 µM.
As for `COc1cc(-c2cc(-c3ccc(N4CCN(C)CC4)cc3)cnc2N)cc(OC)c1OC` [BF000312520, 5-[4-(4-methyl-piperazin-1-yl)phenyl]-3-(3,4,5-trimethoxy-phenyl)-pyridin-2-amine], the IC50 came to 0.232 µM.
In the case of `COc1cc(-c2cc(-c3ccc(OCCCN(C)C)nc3)cnc2N)cc(OC)c1OC` [BF000312521, 5-[6-(3-(dimethyl-amino)-propoxy]-3-pyridyl]-3-(3,4,5-trimethoxy-phenyl)-pyridin-2-amine], the IC50 was 0.709 µM.
The same measure, in the same setting: the result for `COc1cc(-c2cc(-c3cccc(O)c3)cnc2N)cc(OC)c1OC` [BF000312527, 3-[6-amino-5-(3,4,5-trimethoxy-phenyl)-3-pyridyl]-phenol] reads 0.526 µM; that for `COc1cc(-c2cc(-c3cccc(C(N)=O)c3)cnc2N)cc(OC)c1OC` [BF000312539, 3-[6-amino-5-(3,4,5-trimethoxy-phenyl)-3-pyridyl]-benzamide], 0.494 µM.
